# Biological target: T1, BoCE6–CE1 (Bacteroides ovatus, UniProt A0ABU3ING8)
# T1 construct: gene RO706_05995
# Test: absorbance […] nm
# Format: biochemical
# Conditions: […] °C, […] buffer
# T1 sequence (A0ABU3ING8 20-638): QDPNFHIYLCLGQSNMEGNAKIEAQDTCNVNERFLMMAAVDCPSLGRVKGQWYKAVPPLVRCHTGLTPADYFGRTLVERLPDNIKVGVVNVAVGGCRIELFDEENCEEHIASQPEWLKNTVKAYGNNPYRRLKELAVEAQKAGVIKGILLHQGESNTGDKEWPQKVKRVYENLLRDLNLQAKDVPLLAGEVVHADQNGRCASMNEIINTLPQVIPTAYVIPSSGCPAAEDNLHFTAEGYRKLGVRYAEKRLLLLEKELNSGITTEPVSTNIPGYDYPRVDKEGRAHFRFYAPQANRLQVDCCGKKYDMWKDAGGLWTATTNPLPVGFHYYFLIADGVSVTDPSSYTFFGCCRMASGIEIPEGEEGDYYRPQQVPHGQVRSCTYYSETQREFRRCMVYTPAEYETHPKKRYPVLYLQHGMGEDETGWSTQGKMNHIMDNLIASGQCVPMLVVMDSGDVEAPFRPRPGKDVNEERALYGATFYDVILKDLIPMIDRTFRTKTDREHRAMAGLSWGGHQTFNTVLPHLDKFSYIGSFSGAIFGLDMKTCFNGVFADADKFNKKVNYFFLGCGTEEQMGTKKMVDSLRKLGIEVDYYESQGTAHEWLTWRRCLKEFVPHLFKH
row,SMILES,absorbance 340 nm
1,COC(=O)/C=C/c1ccc(O)c(OC)c1 [MFA],The activity on MFA and MSA was in the same order of magnitude for the full-length
2,COC(=O)/C=C/c1cc(OC)c(O)c(OC)c1 [MSA],The activity on MFA and MSA was in the same order of magnitude for the full-length
